Assay results published in patent publication US20230381142A1, “ANTILEISHMANIAL COMPOUNDS, COMPOSITIONS AND USE THEREOF” (TRUSTEES OF BOSTON UNIVERSITY, priority 2022, published 2023).
Values after ≈ are worked out from the molar mass of the structure shown.

Tests used:
human serum albumin = human serum albumin (Homo sapiens, UniProt P02768); assay: Human serum albumin (HSA) binding, chromatographic; format: in vitro ADME
Procedure: The percentage of compound bound to human serum albumin was measured using a chromatographic method as described. Briefly, each compound was assayed on an immobilized HSA column and gradient retention times measured, with chromatographic peak detection by UV. Each retention time was then converted to a % HSA bound value using a calibration set of compounds with a known % HSA binding.

[1] = Artificial membrane permeability (AMP); format: in vitro ADME; settings: PAMPA, pH 7.4
In short: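 Passive permeation through 1.8% phosphatidylcholine in 1% decane membrane, 50 mM phosphate buffer pH 7.4 on donor and receiver sides. After 45 min pre-shaking, compounds incubated 3 h at room temperature with shaking, in duplicate; donor and receiver solutions quantified by LC/MS.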

[2] = Kinetic aqueous solubility by CLND; format: physicochemical; settings: kinetic from dmso stock, high-throughput CLND
Procedure: Solubility of compounds using ChemiLuminescent Nitrogen Detection (CLND) was measured as described. Solubility of compounds using Charged Aerosol Detection (CAD) was measured as described. Solubility of solid compounds in Fasted Simulated Intestinal Fluid (FaSSIF) was measured as described.

host THP-1 macrophages = assay: GSK inMac assay, host cell toxicity readout (LD MAC); format: cell-based, human; settings: Homo sapiens, THP-1, cytotoxicity against host THP-1 macrophages
In short: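 MAC EC50 reflects THP-1 host cell counts, measured within GSK's inMac L. donovani infection assay that also scores intracellular amastigotes and infected-cell percentage.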

[3] = tested on: L. donovani intracellular amastigotes infecting THP-1 macrophages; assay: GSK intramacrophage L. donovani assay (LD AMMAC, inMac; Assay Conditions C); format: cell-based; settings: Leishmania donovani; for IC50: THP-1; for EC50: growth inhibition of L. donovani intracellular amastigotes infecting THP-1 macrophages, read-out: LD AMMAC EC50
In short: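 EC50 values come from counting amastigotes per infected THP-1 macrophage (AMMAC). Parallel read-outs give percentage of infected cells per well (INFCELL) and a macrophage-number toxicity EC50 (MAC).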

HepG2 cells = assay: HepG2 cytotoxicity; format: cell-based; settings: Homo sapiens; toxicity against HepG2 cells
[4] = tested on: L. donovani intracellular amastigotes in B10R cells; assay: UCSD L. donovani infection assay (Assay Conditions D); format: cell-based; settings: Leishmania donovani
In short: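 Compounds, either single-point at 10 μM or 10-point 2-fold series (3 technical, 2 biological replicates), were incubated 72 h at 37° C. with B10R host cells co-seeded with day-7 stationary L. donovani promastigotes (20:1). DAPI-stained nuclei imaging yielded intracellular parasite EC50 and host-cell CC50.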

[5] = Property forecast index (PFI = ChromLogD7.4 + aromatic rings); format: physicochemical
[6] = aqueous medium (not further specified)

Sequence of human serum albumin (P02768 25-609): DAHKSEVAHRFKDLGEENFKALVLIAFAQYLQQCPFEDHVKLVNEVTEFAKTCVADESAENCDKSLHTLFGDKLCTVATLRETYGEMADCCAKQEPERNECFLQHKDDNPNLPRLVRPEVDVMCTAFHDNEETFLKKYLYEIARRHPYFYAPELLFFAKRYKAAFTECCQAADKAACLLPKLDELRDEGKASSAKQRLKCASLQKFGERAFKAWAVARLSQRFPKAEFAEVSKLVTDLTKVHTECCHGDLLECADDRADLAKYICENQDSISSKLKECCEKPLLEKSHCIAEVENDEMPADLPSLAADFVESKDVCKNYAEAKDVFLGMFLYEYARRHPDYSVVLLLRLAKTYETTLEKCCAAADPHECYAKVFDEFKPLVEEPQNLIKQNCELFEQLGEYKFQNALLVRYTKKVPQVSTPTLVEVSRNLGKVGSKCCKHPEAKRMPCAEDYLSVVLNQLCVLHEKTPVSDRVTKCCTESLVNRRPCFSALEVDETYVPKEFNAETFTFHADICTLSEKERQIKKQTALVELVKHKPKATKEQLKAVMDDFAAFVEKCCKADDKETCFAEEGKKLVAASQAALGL

Structure (SMILES)	HSA Binding (human serum albumin) [%]	Papp at 3 h [1] [×10⁻⁶ cm/s]	solubility ([2]; aqueous medium) [µM]	EC50 (host THP-1 macrophages) [µM]	IC50 [3] [µM]	EC50 [3] [µM]	EC50 (HepG2 cells) [µM]	IC50 [4] [µM]	PFI [5]	solubility [2, 6] [µM]
COc1ccc(N2C(=O)c3[nH]nc(CC(C)C)c3C2c2ccc(F)cc2)cc1F (stereo not drawn) [Compound 42, 5-(3-fluoro-4-methoxyphenyl)-4-(4-fluorophenyl)-3-isobutyl-4,5-dihydropyrrolo[3,4-c]pyrazol-6(2H)-one]	96.9	29	39 (≈ 15.5 µg/mL)	25.1	1.3	1.3	50.1	0.6	8.6	
CC(C)Cc1n[nH]c2c1C(c1ccc(F)cc1)N(c1ccc3c(c1)OCO3)C2=O (stereo not drawn) [Compound 44, 5-(benzo[d][1,3]dioxol-5-yl)-4-(4-fluorophenyl)-3-isobutyl-4,5-dihydropyrrolo[3,4-c]pyrazol-6(1H)-one]	96.2	39	63 (≈ 24.8 µg/mL)	25.1	0.6	0.6	63.1	0.3	8.4	
CC(C)Cc1n[nH]c2c1C(c1ccc(F)cc1)N(c1ccc3c(c1)OCCO3)C2=O (stereo not drawn) [Compound 45]	96.2	51	50 (≈ 20.4 µg/mL)	25.1	3.2	3.2	> 50	0.9	8.4	
COc1ccc(N2C(=O)c3[nH]nc(CC(C)C)c3C2c2ccccc2Cl)cc1 (stereo not drawn) [Compound 55, 4-(2-chlorophenyl)-3-isobutyl-5-(4-methoxyphenyl)-4,5-dihydropyrrolo[3,4-c]pyrazol-6(1H)-one]	97.8	33		20	1.3	1.3	31.6	0.2	8.8	30 (≈ 11.9 µg/mL)
COc1ccc(N2C(=O)c3[nH]nc(CC(C)C)c3C2c2ccsc2)cc1 (stereo not drawn) [Compound S3]	95.4	47		> 50	6.3	6.3	> 100	4	8.3	149 (≈ 54.8 µg/mL)
COc1ccc(N2C(=O)c3[nH]nc(CC(C)C)c3C2c2ccc(F)cn2)cc1 (stereo not drawn) [Compound S10]	90.2	49		> 50	10	10	> 100	3.4	7.7	≥ 343
